Test results reported in ChEMBL document CHEMBL6071211, “Invention of VH-937, a Potent HIV-1 Maturation Inhibitor with the Potential for Infrequent Oral Dosing in Humans” (ACS Med Chem Lett, 2024).

Experiments:
[1] = tested on: Human immunodeficiency virus 1; assay: In vitro antiviral activity against fully replicating wild type HIV1 NL4-3; type: functional, organism-based; settings: Human immunodeficiency virus 1, NL4-3
[2] = tested on: Human immunodeficiency virus 1; assay: In vitro antiviral activity against fully replicating HIV1 NL4-3 harboring Gag A364V mutant; type: functional, organism-based; settings: Human immunodeficiency virus 1, NL4-3
[3] = tested on: Human immunodeficiency virus 1; assay: In vitro antiviral activity against fully replicating HIV1 harboring Gag A364V mutant by multicycle assay; type: functional, organism-based
[4] = tested on: Human immunodeficiency virus 1; assay: Ratio of EC50 for antiviral activity against fully replicating HIV1 harboring Gag V3621/V370A mutant by multicycle assay to EC50 for antiviral activity against fully replicating wild type HIV1 NLRepRluc-P373S by multicycle assay; type: functional
[5] = tested on: Human immunodeficiency virus 1; assay: In vitro antiviral activity against fully replicating wild type pseudotype HIV1 NLRepRluc-P373S by single cycle assay; type: functional, organism-based
[6] = tested on: Human immunodeficiency virus 1; assay: In vitro antiviral activity against fully replicating pseudotype HIV1 harboring Gag V3621/V370A mutant by single cycle assay; type: functional, organism-based
[7] = tested on: Human immunodeficiency virus 1; assay: Ratio of EC50 for antiviral activity against fully replicating pseudotype HIV1 harboring Gag V370A mutant by single cycle assay to EC50 for antiviral activity against fully replicating wild type pseudotype HIV1 NLRepRluc-P373S by single cycle assay; type: functional
[8] = tested on: Human immunodeficiency virus 1; assay: Ratio of EC50 for antiviral activity against fully replicating pseudotype HIV1 harboring Gag deltaV370 mutant by single cycle assay to EC50 for antiviral activity against fully replicating wild type pseudotype HIV1 NLRepRluc-P373S by single cycle assay; type: functional
[9] = tested on: Human immunodeficiency virus 1; assay: Ratio of EC50 for antiviral activity against fully replicating pseudotype HIV1 harboring to Gag T332S/[…]/prR41G mutant by single cycle assay to EC50 for antiviral activity against fully replicating wild type pseudotype HIV1 NLRepRluc-P373S by single cycle assay; type: functional
[10] = tested on: Human immunodeficiency virus 1; assay: In vitro antiviral activity against fully replicating wild type pseudotype HIV1 NLRepRluc-P373S assessed as maximum percent inhibition by single cycle assay relative to control; type: functional
[11] = tested on: Human immunodeficiency virus 1; assay: In vitro antiviral activity against fully replicating pseudotype HIV1 harboring Gag deltaV370 mutant assessed as maximum percent inhibition by single cycle assay relative to control; type: functional
[12] = tested on: Human immunodeficiency virus 1; assay: In vitro antiviral activity against fully replicating pseudotype HIV1 harboring Gag V3621/V370A mutant assessed as maximum percent inhibition by single cycle assay relative to control; type: functional
[13] = tested on: Human immunodeficiency virus 1; assay: In vitro antiviral activity against fully replicating pseudotype HIV1 harboring Gag T332S/[…]/prR41G mutant assessed as maximum percent inhibition by single cycle assay relative to control; type: functional
[14] = tested on: Human immunodeficiency virus 1; assay: In vitro antiviral activity against fully replicating pseudotype HIV1 harboring Gag A364V mutant assessed as maximum percent inhibition by single cycle assay relative to control; type: functional
[15] = tested on: Human immunodeficiency virus 1; assay: In vitro antiviral activity against HIV1 subtype A clinical isolate UG275; type: functional, organism-based; settings: Human immunodeficiency virus 1, UG275
[16] = tested on: Human immunodeficiency virus 1; assay: In vitro antiviral activity against HIV1 subtype C clinical isolate 97ZA009; type: functional, organism-based; settings: Human immunodeficiency virus 1, 97ZA009
[17] = AUC (infinity) in mouse at 1 mg/kg, iv; type: ADME, organism-based; settings: in vivo
[18] = Elimination half life in mouse at 1 mg/kg, iv; type: ADME, organism-based; settings: in vivo, read-out: beta t1/2 (converted)
[19] = Clearance in mouse at 1 mg/kg, iv; type: ADME, organism-based; settings: in vivo
[20] = AUC (infinity) in mouse at 5 mg/kg, po; type: ADME, organism-based; settings: in vivo
[21] = AUC (infinity) in rat at 1 mg/kg, iv; type: ADME, organism-based; settings: in vivo
[22] = Elimination half life in rat at 1 mg/kg, iv; type: ADME, organism-based; settings: in vivo, read-out: beta t1/2 (converted)
[23] = Clearance in dog at 2 mg/kg, iv; type: ADME, organism-based, Canis lupus familiaris; settings: in vivo
[24] = AUC (infinity) in dog at 5 mg/kg, po; type: ADME, organism-based, Canis lupus familiaris; settings: in vivo
[25] = Elimination half life in dog at 5 mg/kg, po; type: ADME, organism-based, Canis lupus familiaris; settings: in vivo, read-out: beta t1/2 (converted)
[26] = target: Human immunodeficiency virus type 1 Gag protein (Human immunodeficiency virus 1) (UniProt Q77YG1); assay: Binding affinity to HIV1 wild type Gag mutant assessed as dissociation half life by virus-like particle (VLP) assay
[27] = Metabolic stability in rat liver microsomes assessed as half life; type: ADME, Microsome
[28] = Metabolic stability in Cynomolgus monkey liver microsomes assessed as half life; type: ADME, Macaca fascicularis, Microsome
[29] = Lipophilicity, logD of compound; type: physicochemical; settings: octanol/water
Cytochrome P450 1A2 = target: T1, Cytochrome P450 1A2 (Homo sapiens, UniProt P05177); assay: Inhibition of CYP1A2 (unknown origin); type: ADME
T1 sequence (P05177 whole entry): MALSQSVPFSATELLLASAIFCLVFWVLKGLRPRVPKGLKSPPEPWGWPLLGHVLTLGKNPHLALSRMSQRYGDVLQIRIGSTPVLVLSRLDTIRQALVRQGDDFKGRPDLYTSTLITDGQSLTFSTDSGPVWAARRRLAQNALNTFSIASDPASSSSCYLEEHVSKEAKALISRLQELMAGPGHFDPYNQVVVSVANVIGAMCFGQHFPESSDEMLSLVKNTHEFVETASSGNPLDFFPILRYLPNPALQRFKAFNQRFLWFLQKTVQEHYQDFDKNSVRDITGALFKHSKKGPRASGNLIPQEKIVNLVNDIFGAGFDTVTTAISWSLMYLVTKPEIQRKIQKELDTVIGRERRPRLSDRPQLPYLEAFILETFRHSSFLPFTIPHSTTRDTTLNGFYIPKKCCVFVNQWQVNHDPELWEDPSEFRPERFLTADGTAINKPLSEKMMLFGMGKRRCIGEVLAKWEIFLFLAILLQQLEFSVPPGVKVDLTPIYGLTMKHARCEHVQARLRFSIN

Cytochrome P450 2C8 = target: T2, Cytochrome P450 2C8 (Homo sapiens, UniProt P10632); assay: Inhibition of CYP2C8 (unknown origin); type: ADME
T2 sequence (P10632 whole entry): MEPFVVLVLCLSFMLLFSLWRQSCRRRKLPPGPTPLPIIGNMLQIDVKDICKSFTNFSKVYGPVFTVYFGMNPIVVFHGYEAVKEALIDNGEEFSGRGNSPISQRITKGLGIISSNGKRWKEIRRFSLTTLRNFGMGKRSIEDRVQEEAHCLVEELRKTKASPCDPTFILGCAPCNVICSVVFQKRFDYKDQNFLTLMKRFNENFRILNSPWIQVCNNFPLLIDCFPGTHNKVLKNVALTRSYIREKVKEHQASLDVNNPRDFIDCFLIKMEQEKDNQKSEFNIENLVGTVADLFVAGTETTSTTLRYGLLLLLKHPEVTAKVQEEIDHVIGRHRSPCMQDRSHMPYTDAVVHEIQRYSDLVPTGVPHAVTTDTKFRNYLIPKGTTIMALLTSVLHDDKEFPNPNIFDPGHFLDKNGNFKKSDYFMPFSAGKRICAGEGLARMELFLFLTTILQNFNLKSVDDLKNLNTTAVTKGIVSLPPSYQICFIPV

Cytochrome P450 2C9 = Cytochrome P450 2C9 (Homo sapiens, UniProt P11712); assay: Inhibition of CYP2C9 (unknown origin); type: ADME
Cytochrome P450 2C9, sequence (P11712 whole entry): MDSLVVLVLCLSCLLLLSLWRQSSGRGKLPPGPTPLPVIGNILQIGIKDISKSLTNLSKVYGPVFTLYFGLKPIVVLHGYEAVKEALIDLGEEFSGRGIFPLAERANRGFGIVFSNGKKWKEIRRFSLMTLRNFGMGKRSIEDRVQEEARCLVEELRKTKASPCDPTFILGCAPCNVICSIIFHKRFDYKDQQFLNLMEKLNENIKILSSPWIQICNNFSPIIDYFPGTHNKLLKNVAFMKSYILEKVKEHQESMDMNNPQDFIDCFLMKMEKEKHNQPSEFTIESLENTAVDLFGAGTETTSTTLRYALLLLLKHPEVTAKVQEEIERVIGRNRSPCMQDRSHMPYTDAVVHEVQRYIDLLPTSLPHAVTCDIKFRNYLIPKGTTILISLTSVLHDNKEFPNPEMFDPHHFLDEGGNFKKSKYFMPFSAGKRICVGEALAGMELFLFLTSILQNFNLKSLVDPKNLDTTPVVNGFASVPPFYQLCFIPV

[30] = Genotoxicity in Salmonella typhimurium by Ames test; type: toxicity; settings: salmonella enterica subsp. enterica serovar typhimurium
[31] = Toxicity in normal healthy human volunteers assessed as adverse effect at 10 mg for 15 days and followed by 30 mg; settings: in vivo, 360 h, time 15 day

Structure (SMILES): C=C(C)[C@@H]1CC[C@]2(NCCN3CCS(=O)(=O)CC3)CC[C@]3(C)[C@H](CC[C@@H]4[C@@]5(C)CC=C(C6=CC[C@](COc7ncccc7C#N)(C(=O)O)CC6)C(C)(C)[C@@H]5CC[C@]43C)[C@@H]12
- EC50 [1]: 1.8 nM
- EC50 [2]: 5 nM
- EC50 [3]: 5 nM
- Ratio EC50 [4]: 1
- EC50 [5]: 5 nM
- EC50 [6]: 11 nM
- Ratio EC50 [7]: 1.2
- Ratio EC50 [8]: 2.4
- Ratio EC50 [9]: 4.8
- Imax [10]: 99%
- Imax [11]: 100%
- Imax [12]: 98%
- Imax [13]: 96%
- Imax [14]: 57%
- EC50 [15]: 2 nM
- EC50 [16]: 5 nM
- AUC(0-inf) [17]: 32.2 µM·h
- half-life [18]: 10.9 h
- clearance [19]: 0.63 mL/min/kg
- AUC(0-inf) [20]: 73.8 µM·h
- AUC(0-inf) [21]: 16.1 µM·h
- half-life [22]: 8.6 h
- clearance [23]: 0.21 mL/min/kg
- AUC(0-inf) [24]: 120 µM·h
- half-life [25]: 26.9 h
- T1/2 [26]: 68.8 h
- half-life [27]: > 2 h
- half-life [28]: 0.2 h
- logD [29]: 4.74
- IC50 (Cytochrome P450 1A2): > 4400 nM
- IC50 (Cytochrome P450 2C8): > 4400 nM
- IC50 (Cytochrome P450 2C9): > 4400 nM
- Activity [30]: Non-Toxic
- Activity [31]: Non-Toxic
